# Source: US20020165233A1, “Quinoxaline containing medicaments for post exposure prophylaxis of an HIV infection” (priority 1999, published 2002)
# “Also recorded” adds a separate entry of the source.
# Tests used:
# RT-SHIV [1] = experiment: RT-SHIV proviral DNA in PBMC and LNMC (quantitative PCR); format: in vivo, rhesus monkeys; conditions: for RT-SHIV proviral DNA in LNMC: 8 w p.e.
# Experimental: (§1) Nine rhesus monkeys (male, 2 years old, 2-3 kg) were seronegative for SIV, Simian T cell Leukemia Virus (STLV), B virus and Type D retroviruses. 15 mg/kg body weight of COMPOUND A was subcutaneously administered into animals twice a day (12 h interval) for 28 d. Animals were divided into three groups. All animals were intravenously administered with 100 TCID50 of RT-SHIV The first group consisted of three animals treated with COMPOUND A from 8 h post exposure for 28 d. The second group of animals was treated with COMPOUND A from 24 h post exposure for 28 d. The third group (control) received the solvent that was used to dissolve COMPOUND A (PEG400:glycerol:water=[…]) from 8 h post exposure for 28 d.
# Blood was collected from all the animals either just before or 2 h after the drug administration on 0, 3, 7, 10, 14, 21, 29 d post exposure in order to check the drug concentration, otherwise in intervals of 2 to 8 weeks. Biopsy of inguinal lymph nodes was conducted on 17 d or 18 d and 8 weeks post exposure in two animals per group. Cerebrospinal fluid (CSF) was collected from the animals just before biopsy.
# T-SHIV DNA Amount in Peripheral Blood Mononuclear Cells (PBMC) and Lymph Node Cells (LNC):
# PBMC were separated by Ficoll-Hypaque gradient centrifugation. Cellular DNA was purified from 1×10^6 cells with a commercial DNA purification kit (Qiagen). Gag sequence of viral DNA was PCR amplified with the primers SG05i and SG06i. Nested PCR amplification with two sets of primers, i.e. F34C (nt. 9065 to 9082)(5′-CCTACCTACAATATGGGT-3′) and F35C (nt. 9800 to 9778)(5′-[…]-3′), the second primers: N3 (nt. 9182 to 9201)(5′-GMGATGGATACTCGCAATC-3′) and N4, (nt. 9552 to 9533)(5′-TMTCCTGCCAATCTGGTAT-3′) was performed to detect one copy per 100,000 cells. Detection and quantitative determination of the viral DNA copy number was conducted as described for plasma viral load. The cell numbers of PBMC and LNC were estimated by imaging analysis of cyber green-stained chromosomal DNA separated by agarose gel electrophoresis.
# The detection limit was 1 copy DNA per 100,000 cells. In contrast to the untreated animals, the proviral DNA levels were very low in the treated groups.
# RT-SHIV [2] = experiment: Anti-SIV ELISA (humoral response); format: in vivo, rhesus monkeys
# Experimental: as §1
# 1:100 fold diluted plasma was assayed with ELISA plates coated with SIVmac239 virion lysate. Antibody titer was monitored by measuring the absorbance at 492 nm.
# RT-SHIV [3] = experiment: env specific cell proliferation assay; format: in vivo, rhesus monkeys
# Experimental: as §1
# Cell Proliferation Assay:
# The method used was described previously [J. Virol, 1996: 70, 678-681]. In brief, PBMC was thawed and incubated as described in the CTL assay. Triplicates of PBMC (4×10^5) cells were incubated with autologous B-LCL (1×10^5) that had been infected with SIV env-rvv or control vv and fixed with 1.5% paraformaldehyde in phosphate buffered saline (PBS). ^3H-thymidine was added to 8 h before harvesting. The incorporation of ^3H-thymidine was measured by liquid scintillation counting. The stimulation index was calculated as (mean c.p.m. of PBMC cultured with env-rvv/mean c.p.m. of PBMC cultured with control vv).
# [4] = parameters: species or system rhesus monkeys; conditions: rhesus monkey, in vivo, sc, 15 mg/kg
# Experimental: as §1
structure (smiles),measurement,setting,value
"CC[C@H]1C(=O)Nc2ccc(F)cc2N1C(=O)OC(C)C [Compound A, (3S)-ethyl-6-fluoro-4-isopropyloxycarbonyl-3,4-dihydroquinoxalin-2(1H)-one]",RT-SHIV proviral DNA in PBMC,"RT-SHIV [1]; animal #1, treated 8h thru 28 dpi, 2 w p.e.","0 viral DNA copies/100,000 cells"
same,RT-SHIV proviral DNA in PBMC,"RT-SHIV [1]; animal #1, treated 8h thru 28 dpi, 4 w p.e.","0 viral DNA copies/100,000 cells"
same,RT-SHIV proviral DNA in PBMC,"RT-SHIV [1]; animal #1, treated 8h thru 28 dpi, 15 w p.e.","1 viral DNA copies/100,000 cells"
same,RT-SHIV proviral DNA in PBMC,"RT-SHIV [1]; animal #1, treated 8h thru 28 dpi, 40 w p.e.","0 viral DNA copies/100,000 cells"
same,RT-SHIV proviral DNA in PBMC,"RT-SHIV [1]; animal #1, treated 8h thru 28 dpi, 50 w p.e.","0 viral DNA copies/100,000 cells"
same,RT-SHIV proviral DNA in PBMC,"RT-SHIV [1]; animal #3, treated 24 h thru 28 d pi, 2 w p.e.","0 viral DNA copies/100,000 cells"
same,RT-SHIV proviral DNA in PBMC,"RT-SHIV [1]; animal #3, treated 24 h thru 28 d pi, 4 w p.e.","0 viral DNA copies/100,000 cells"
same,RT-SHIV proviral DNA in PBMC,"RT-SHIV [1]; animal #3, treated 24 h thru 28 d pi, 15 w p.e.","16 viral DNA copies/100,000 cells"
same,RT-SHIV proviral DNA in PBMC,"RT-SHIV [1]; animal #3, treated 24 h thru 28 d pi, 40 w p.e.","0 viral DNA copies/100,000 cells"
same,RT-SHIV proviral DNA in PBMC,"RT-SHIV [1]; animal #3, treated 24 h thru 28 d pi, 50 w p.e.","2 viral DNA copies/100,000 cells"
same,RT-SHIV proviral DNA in PBMC,"RT-SHIV [1]; animal #4, treated 24 h thru 28 d pi, 2 w p.e.","0 viral DNA copies/100,000 cells"
same,RT-SHIV proviral DNA in PBMC,"RT-SHIV [1]; animal #4, treated 24 h thru 28 d pi, 4 w p.e.","0 viral DNA copies/100,000 cells"
same,RT-SHIV proviral DNA in LNMC,"RT-SHIV [1]; animal #4, treated 24 h thru 28 d pi","1 viral DNA copies/100,000 cells"
same,RT-SHIV proviral DNA in PBMC,"RT-SHIV [1]; animal #4, treated 24 h thru 28 d pi, 15 w p.e.","0 viral DNA copies/100,000 cells"
same,RT-SHIV proviral DNA in PBMC,"RT-SHIV [1]; animal #4, treated 24 h thru 28 d pi, 40 w p.e.","0 viral DNA copies/100,000 cells"
same,RT-SHIV proviral DNA in PBMC,"RT-SHIV [1]; animal #4, treated 24 h thru 28 d pi, 50 w p.e.","0 viral DNA copies/100,000 cells"
same,RT-SHIV proviral DNA in PBMC,"RT-SHIV [1]; animal #5, treated 8h thru 28 dpi, 2 w p.e.","0 viral DNA copies/100,000 cells"
same,RT-SHIV proviral DNA in PBMC,"RT-SHIV [1]; animal #5, treated 8h thru 28 dpi, 4 w p.e.","0 viral DNA copies/100,000 cells"
same,RT-SHIV proviral DNA in LNMC,"RT-SHIV [1]; animal #5, treated 8h thru 28 dpi","2 viral DNA copies/100,000 cells"
same,RT-SHIV proviral DNA in PBMC,"RT-SHIV [1]; animal #5, treated 8h thru 28 dpi, 15 w p.e.","0 viral DNA copies/100,000 cells"
same,RT-SHIV proviral DNA in PBMC,"RT-SHIV [1]; animal #5, treated 8h thru 28 dpi, 40 w p.e.","0 viral DNA copies/100,000 cells"
same,RT-SHIV proviral DNA in PBMC,"RT-SHIV [1]; animal #5, treated 8h thru 28 dpi, 50 w p.e.","0 viral DNA copies/100,000 cells"
same,RT-SHIV proviral DNA in PBMC,"RT-SHIV [1]; animal #10, treated 8h thru 28 dpi, 2 w p.e.","0 viral DNA copies/100,000 cells"
same,RT-SHIV proviral DNA in PBMC,"RT-SHIV [1]; animal #10, treated 8h thru 28 dpi, 4 w p.e.","0 viral DNA copies/100,000 cells"
same,RT-SHIV proviral DNA in PBMC,"RT-SHIV [1]; animal #10, treated 8h thru 28 dpi, 15 w p.e.","7 viral DNA copies/100,000 cells"
same,RT-SHIV proviral DNA in PBMC,"RT-SHIV [1]; animal #10, treated 8h thru 28 dpi, 40 w p.e.","1 viral DNA copies/100,000 cells"
same,RT-SHIV proviral DNA in PBMC,"RT-SHIV [1]; animal #10, treated 8h thru 28 dpi, 50 w p.e.","5 viral DNA copies/100,000 cells"
same,RT-SHIV proviral DNA in PBMC,"RT-SHIV [1]; animal #11, treated 24 h thru 28 d pi, 2 w p.e.","0 viral DNA copies/100,000 cells"
same,RT-SHIV proviral DNA in PBMC,"RT-SHIV [1]; animal #11, treated 24 h thru 28 d pi, 4 w p.e.","0 viral DNA copies/100,000 cells"
same,RT-SHIV proviral DNA in PBMC,"RT-SHIV [1]; animal #11, treated 24 h thru 28 d pi, 15 w p.e.","1 viral DNA copies/100,000 cells"
same,RT-SHIV proviral DNA in PBMC,"RT-SHIV [1]; animal #11, treated 24 h thru 28 d pi, 40 w p.e.","0 viral DNA copies/100,000 cells"
same,RT-SHIV proviral DNA in PBMC,"RT-SHIV [1]; animal #11, treated 24 h thru 28 d pi, 50 w p.e.","0 viral DNA copies/100,000 cells"
same,proviral DNA levels (persistent infection) in treated groups relative to untreated,RT-SHIV [1]; treated groups versus untreated animals,very low; also recorded: far lower level of persistent infection
same,induction of humoral response against RT-SHIV,"RT-SHIV [2]; ELISA against SIV virion proteins, untreated sero-positive at 4 weeks",delayed induction of humoral response
same,treated animals sero-positive,RT-SHIV [2]; at 11 weeks post exp.,Two of six
same,humoral response of animal #5,RT-SHIV [2]; late course,eventually lost its humoral response
same,proliferative response at week 40,RT-SHIV [3]; all treated animals versus untreated group,levels higher than those of the untreated group
same,env specific proliferative responses,"RT-SHIV [3]; all treated animals, 3 weeks through 40 weeks post exposure, versus untreated",Significantly higher
same,adverse effect,[4],without any adverse effect
